How the values were obtained:
[1] = tested on: dermal herpes simplex virus-1 (HSV-1) infection; test: Dermal HSV-1 infection in guinea pigs, topical treatment (lesion number, lesion area, skin virus titer); type: in vivo, guinea pig (Female Hartley outbred); settings: for effectiveness in reducing dermal HSV-1 virus infection compared with acyclovir and phosphotriester prodrugs (in words): dermal HSV-1 infection; for lesion number, lesion area and lesion virus titer (summary in words): guinea pigs with dermal HSV-1 infections, compared to vehicle/placebo
Description: The formulation for Prodrug 1 contained 5% EL-620 EMULPHOR (polyoxyethylated castor oil) (Rhone Poluenc), 5% CARBOPOL (Carboxypolymethylene, sodium salt) (B. F. Goodrich), 10% ethanol and 2% by weight Prodrug 1. The balance of the formulation consisted of water.
EL-620 EMULPHOR and water were mixed and ultrasonicated to give a clear emulsion, to which the ethanol was added. The prodrug was then added, and the mixture was ultrasonicated. The sodium carbopol was then added to the emulsion and mixed until to homogeneity.
The placebo was prepared identically to the pharmaceutical compositions except that the prodrugs were omitted.
The pharmaceutical compositions were stored at room temperature.
Female Hartley outbred guinea pigs, 400 to 450 grams, were obtained from Charles River Breeding Labs, Wilmington, Mass. Animals were anesthetized with 25 mg/kg ketamine and 5 mg/kg xylazine SQ. Hair on the dorsum from the shoulders to the rump was removed with electric clippers followed by two 5-10 minute applications of a chemical depilatory. A grid of four areas was demarcated with a pen on both sides of the spine at levels corresponding to mid back and rump.
Undiluted HSV-1 virus stock (0.035 ml) was applied to each different area and introduced through the skin at well-spaced sites at ten activations of a six-pronged spring-loaded vaccination instrument (Sterneedle, Pan Ray Division, Ormont Drug, Englewood, N.J.). The day of inoculation is Day 0. Approximately 250 mg of drug or placebo was applied to the areas according to the dosing regimen on Days 1, 2 and 3. Eight guinea pigs were used during the experiments allowing eight comparisons between each drug and its placebo.
On Day 4 regrown hair on the dorsum of the guinea pigs was removed with one 3-4 minute application of a chemical depilatory. HSV lesions were counted and Polaroid pictures of the animals' backs were taken. The animals were sacrificed using CO2 gas and the full thickness skin of the back was removed by dissection. The square of the skin from each of the four treatment areas was placed into 15 mls of tissue culture medium with 2% FES in an ice bath. The samples were then homogenized in a stomacher Lab Blender 80 (Tekmar Co.). Debris was pelleted by centrifugation and the supernatants collected and frozen at -70° C. until assay for infectivity by plaque formation in VERO cells.
The mean and standard deviation for number of lesions, total lesion area and lesion virus titer were computed. Paired data (drug/vehicle) were evaluated by the Wilcoxon signed-rank test using percent differences between log10 derivatives of mean lesions severity at drug-treated sites compared to the Vehicle-treated sites.
Prodrug 2 was formulated as described in Example 1. One Hartley guinea pig was inoculated with HSV-1 as described in Example 1. The guinea pig was treated with Prodrug 2 according to the protocol used in Example 1 for Prodrug 1.

pig liver esterase = test: Incubation with pig liver esterase in phosphate buffered D2O, NMR; type: in vitro ADME
Text: This assay is described in Glazier, WO 91/19721 entitled "Phosphorus Prodrugs" and can be used to determine suitable hydroxyl or amino protecting groups which can be cleaved in vivo. The entire teachings of […] are incorporated herein by reference. It is to be understood that there are other in vitro assays known to one of ordinary skill in the art employing esterases, amidases or enzymes capable of cleaving carbonate, carbamate, ester and amide groups which can also be used to determine suitable protecting groups.

herpes simplex labialis = settings: cited from earlier work
[2] = guinea pigs, topical, 2% by weight Prodrug 1 formulation, Days 1, 2 and 3, vs placebo (p<0.01)

| Compound | effectiveness in reducing dermal HSV-1 virus infection compared with acyclovir and phosphotriester prodrugs (in words) [1] | lesion number, lesion area and lesion virus titer (summary in words) [1] | reduction in lesion area [1, 2] | reduction in lesion number [1, 2] | reduction in skin viral titers [1, 2] | degradation by esterase, products by NMR (pig liver esterase) | reduction in lesion number, lesion area and skin viral titers (in words) ([1]; one Hartley guinea pig, formulated as in Example 1, compared with Prodrug 1 in Example 1) | effectiveness of oral acyclovir in cold sores (herpes simplex labialis; oral) | response of cold sores to topical acyclovir (herpes simplex labialis; topical) |
| --- | --- | --- | --- | --- | --- | --- | --- | --- | --- |
| COC(=O)CC(OP(=O)(O)OCCOCn1cnc2c(=O)[nH]c(N)nc21)c1ccc(OC(=O)C(C)(C)C)cc1 (centres unmarked) [Prodrug 1, Sodium 2-((9-Guanylyl)methyl)oxy)ethyl 1-(4-((2,2-dimethylpropionyl)oxy)-phenyl)-2-((methoxy)carbonyl)ethyl phosphate] | more Effective in Reducing Dermal HSV-1 Virus Infection than Acyclovir | dramatic reduction in lesion number, in lesion area and in lesion virus titer | 79% | 72% | 93% | degraded to acyclovir monophosphate and p-hydroxycinnamic | – | – | – |
| COC(=O)CC(OP(=O)(O)OCCOCn1cnc2c(=O)[nH]c(N)nc21)c1ccc(OC(C)=O)cc1 (centres unmarked) [Prodrug 2, sodium 2-((9-guanylyl)methyl)oxy)ethyl-1-(4-acetoxyphenyl)-2-((methoxy)carbonyl)ethyl phosphate] | more Effective in Reducing Dermal HSV-1 Virus Infection than Acyclovir | dramatic reduction in lesion number, in lesion area and in lesion virus titer | – | – | – | – | comparable reduction in lesion number, lesion area and in skin viral titers | – | – |
| Nc1nc2c(ncn2COCCO)c(=O)[nH]1 [acyclovir] | – | – | – | – | – | – | – | only partially effective | do not respond |

Source: patent US6214811A, “Acyclovir diester derivatives” (Drug Innovation & Design, Inc., priority 2000, dated 2001)
